How the values were obtained:
PGE2 = PGE2 level in ischemic brain (ELISA); assay type: in vivo, Wistar rats; details: HHcy rats, MCAO 60 minutes, six hours of reperfusion, NVP-AAM077 1.2 mg/kg intravenous at onset of insult
Description: Wistar rats were made hyperhomocysteinemic using osmotic pump containing L-homocysteine. Animals were hyperhomocysteinemic (19-23 μM) within three days of pump implantation. Ischemic stroke was induced by MCAO for 60 minutes followed by reperfusion for six hours. Tissue punches from the ipsilateral striatum and cortex were lysed in ice-cold Phosphate buffered saline (pH 7.4) containing phosphatase inhibitor, sonicated three times in five-second bursts and placed on ice (two minutes) between each burst of sonication. The lysed cell suspensions were centrifuged at 10,000 rpm (10 minutes) and the supernatant was collected in another tube. Equal amounts of protein from the supernatant were processed for PGE2 and MCP-1 levels using respective ELISA kit.

ERK MAPK = ERK MAPK phosphorylation in WT and GluN2A-KO mouse neuron cultures (immunoblot); assay type: cell-based, mice; details: L-homocysteine 50 μM
From the text: Primary cortical neuronal cultures were established from embryos obtained from pregnant Sprague Dawley female rats (16-17 day gestation) as previously described (Podder and Paul, 2009, J Neurochem 110:1095-1106; Poddar and Paul, 2013, J Neurochem 124: 558-570). Primary cortical neuronal cultures were also developed from pregnant wildtype or GluN2A-knockout mice (15-16 day gestation) using similar protocols. The cells were maintained in culture for 12-14 days prior to treatment with homocysteine. L-homocysteine (200 mM stock) was prepared by alkali hydrolysis of L-homocysteine thiolactone hydrochloride followed by neutralization with 2N HCL and maintained in 0.02 mM N-Tris(hydroxymethyl)methyl-2-aminoethanesulfonicd acid (TES) buffer pH 7.4 (Poddar et al., 2001, Circulation 103:2717-2723). For receptor stimulation neurons were treated with freshly prepared 50 μM of L-homocysteine in Hank's balanced salt solution (Podder and Paul, 2009, J Neurochem 110:1095-1106; Poddar and Paul, 2013, J Neurochem 124: 558-570) containing 50 μM of glycine (Lipton et al., 1997, Proc Natl Acad Sci USA 94:5923-5928). In a subset of culture plates, pharmacological inhibitors (NVP-AAM007) were added […] prior to homocysteine addition and maintained during homocysteine treatment. Cells were processed for immunoblotting or Hoechst DNA staining.
Equal protein from total cell lysates obtained from rat and mice neuronal cultures were resolved in 7.5% SDS-PAGE, and subjected to immunoblotting procedure as described earlier (Podder and Paul, 2009, J Neurochem 110:1095-1106). Blots were analyzed with antibodies as described in each experiment. All primary antibodies (anti-pERK, anti-ERK) and secondary-horse radish peroxidase conjugated antibody concentrations were used according to recommendations provided by the manufacturer. Signals from immune complexes in the blots were developed using West Pico supersignal chemiluminescence reagents and then captured on X-ray films. Densitometric analysis of the images was performed using the Image J software.
Embryos obtained from pregnant Sprague Dawley rats (16-17-day gestation) or wild type (WT) and GluN2A KO mice (15-16-day gestation) were used to establish primary cortical neuronal cultures as previously described (Poddar and Paul, 2009, J Neurochem 110:1095-1106; Poddar and Paul, 2013, J Neurochem 124:558-570; Poddar et al., 2017, J Neurochem 142:560-573). Neurons were grown on either (a) 35-mm culture dishes (MatTek Corp., Ashland, Mass.) coated overnight with poly-D-lysine (50 μg/ml) and laminin (10 μg/ml) for Ca^2+ imaging studies, (b) poly-D-lysine-coated 60 mm dishes (Corning BIOCOAT, Corning Inc., Corning, N.Y.) for biochemical studies, or (c) poly-D-lysine-coated 4-well culture slides (Corning BIOCOAT, Corning Inc., Corning, N.Y.) for cell death assay. Neurons were maintained in culture for 12-13 days before experiment. The cells were treated with freshly prepared L-homocysteine (50 μM) in Hank's balanced salt solution containing 50 μM of glycine (Lipton et al., 1997, Proceedings of the National Academy of Sciences of the United States of America 94:5923-5928; Poddar and Paul, 2009, J Neurochem 110:1095-1106; Poddar and Paul, 2013, J Neurochem 124:558-570; Poddar et al., 2017, J Neurochem 142:560-573) for the specified time periods. In a parallel series of experiments, cells were treated with glutamate (50 μM) for the specified time periods. Cells were then processed for live cell imaging, immunoblotting or cell death assay. […]

[1] = tested on: rat cortical neuron cultures; assay: OGD / re-oxygenation cell death, Hoechst DNA staining; assay type: cell-based; details: OGD two hours in the presence of homocysteine 50 μM, re-oxygenation 22 hours, vs OGD alone
Description: At specified time periods (one hour, two hours, and three hours) during OGD alone or OGD in the presence of L-Hcy (50 μM), cells were removed from the chamber and lysed for immunoblot analysis. Some cultures were treated with L-Hcy (three hours) during the OGD insult in the presence or absence of NVP-AAM077 (30 nM; 3 h). […] Cells were then subjected to staining with Hoechst 33342 dye for 15 minutes, washed extensively with PBS, and analyzed using fluorescent microscopy to assess nuclear damage. To quantitatively assess the percentage of pyknotic nuclei, a total of 1000 cells were counted for each set of experiments (Poddar et al., 2010, J Neurochem 115, 1350-1362).

IκB = IκB degradation in rat neuronal cultures (immunoblot); assay type: cell-based; details: rat neurons, homocysteine 50 μM, four hours, alone
Description: Rat and mice neuronal cultures were washed with PBS (pH 7.4), containing sodium pyrophosphate and sodium vanadate as phosphatase inhibitors, and harvested in SDS sample buffer (Laemmli, 1970, Nature 227:680-685). Equal protein from total cell lysates, estimated using BCA kit, was resolved by SDS-PAGE (7.5%) followed by western blotting on PVDF membranes. Immunoblot analysis was performed by first blocking with 5% non-fat dry milk for 1 h at room temperature followed by incubation with either COX2 immunoblot analysis (Poddar and Paul, 2009, J Neurochem 110:1095-1106) as described in each experiment. All primary antibodies and horseradish peroxidase conjugated secondary antibodies were used according to manufacturer's recommendations. Signals from immune complexes in the blots were developed using West Pico supersignal chemiluminescence reagents and then captured on X-ray films. Densitometric analysis of the images was performed using the NIH Image J software.

SMILES: C[C@H](NC(c1cccc2[nH]c(=O)c(=O)[nH]c12)P(=O)(O)O)c1ccc(Br)cc1 (stereo partly drawn) [NVP-AAM077, ({[(1S)-1-(4-bromophenyl)ethyl]amino}-(2,3-dioxo-1,4-dihydroquinoxalin-5-yl)methyl)phosphonic acid]
- PGE2 level in ischemic hemisphere (cortex and striatum) (PGE2): attenuated the increase in the level of both PGE2 and MCP-1

SMILES: N[C@@H](CCS)C(=O)O [L-homocysteine]
- ERK MAPK phosphorylation (ERK MAPK; neurons from GluN2A KO mice, 30 or 60 minutes): fails to induce ERK MAPK phosphorylation
- ERK MAPK phosphorylation (ERK MAPK; neurons from GluN2A-KO mice, four hours): remains unchanged
- ERK MAPK phosphorylation (ERK MAPK; neurons from WT mice, 30 or 60 minutes): sustained increase in ERK MAPK phosphorylation
- ERK MAPK phosphorylation (ERK MAPK; neurons from WT mice, four hours): significant increase in ERK MAPK phosphorylation
- OGD-induced cell death [1]: increases by two-fold
- cellular level of IκB (IκB): significant decrease in the cellular level of IκB
